Changes are numbered by the printed parent chain.
What was measured:
[1] = molecular target: T1, BA/F3-FLT3-ITD + F691L cells (Homo sapiens, UniProt P36888, F691L, cells depend on it, form not given); test: BA/F3-FLT3-ITD + F691L cell proliferation assay (CellTiter-Glo); type: cell-based, murine; settings: BaF3 FLT3 ITD/F691L cells; read-out: Cell Activity (IC50 μM) BaF3_FLT3_ITD/F691L
T1 sequence (P36888 1-993 F691L): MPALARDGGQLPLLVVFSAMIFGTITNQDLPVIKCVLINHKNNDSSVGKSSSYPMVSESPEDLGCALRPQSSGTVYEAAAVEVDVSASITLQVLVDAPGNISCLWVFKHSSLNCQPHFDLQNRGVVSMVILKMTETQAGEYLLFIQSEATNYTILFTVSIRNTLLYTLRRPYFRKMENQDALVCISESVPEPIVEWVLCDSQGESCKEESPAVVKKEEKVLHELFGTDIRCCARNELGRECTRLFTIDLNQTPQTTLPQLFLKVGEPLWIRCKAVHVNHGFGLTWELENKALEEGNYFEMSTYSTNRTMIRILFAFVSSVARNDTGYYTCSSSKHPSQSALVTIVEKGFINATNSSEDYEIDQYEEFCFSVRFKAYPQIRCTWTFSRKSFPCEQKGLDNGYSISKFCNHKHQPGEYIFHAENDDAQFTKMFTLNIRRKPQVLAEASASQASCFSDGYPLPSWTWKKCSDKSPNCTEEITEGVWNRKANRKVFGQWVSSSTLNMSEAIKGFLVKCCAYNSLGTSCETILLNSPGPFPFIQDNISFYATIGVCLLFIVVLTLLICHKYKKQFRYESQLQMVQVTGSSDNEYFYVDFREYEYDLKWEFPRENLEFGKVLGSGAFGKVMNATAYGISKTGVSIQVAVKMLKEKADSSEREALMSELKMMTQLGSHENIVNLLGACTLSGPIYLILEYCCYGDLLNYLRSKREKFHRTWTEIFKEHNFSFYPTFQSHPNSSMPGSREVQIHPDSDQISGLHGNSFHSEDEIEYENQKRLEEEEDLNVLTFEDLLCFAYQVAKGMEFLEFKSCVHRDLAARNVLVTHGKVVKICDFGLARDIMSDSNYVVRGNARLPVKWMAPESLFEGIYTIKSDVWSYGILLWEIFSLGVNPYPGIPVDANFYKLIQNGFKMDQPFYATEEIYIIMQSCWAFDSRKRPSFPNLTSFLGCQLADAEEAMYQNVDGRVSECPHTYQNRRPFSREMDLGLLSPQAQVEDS
Source text: The FLT3 inhibitors may also be assessed using leukemia cell lines that express endogenous FLT3-ITD or cells that are engineered to express wild-type or mutant FLT3. The cells expressing endogenous FLT3 are dependent upon FLT3 catalytic activity for growth. For the engineered cells, murine BA/F3 cells were transfected with full-length FLT3 (either wild-type, or containing the ITD, D835Y, or F691L mutations, as noted). The parental BA/F3 cells are dependent upon Interleukin-3 (IL-3) for survival, and introduction of the FLT3 constructs renders these cells dependent upon FLT3 kinase activity when cultured in the absence of IL-3. Engineered BA/F3 cell growth assays can be performed in either the absence or presence of IL-3, to assess the compound inhibition of FLT3 or to detect the presence of off-target activity, respectively. Inhibitors of FLT3 kinase activity reduce or eliminate the FLT3 oncogenic signaling, resulting in reduced cell proliferation. This inhibition is measured as a function of compound concentration to assess IC50 values.
Cells were seeded at 1×10^4 cells per well of a 96 well cell culture plate in 50 μl of cell culture medium. Compounds were dissolved in DMSO, typically at a concentration of 5 mM and were serially diluted 1:3 for a total of eight points and added to the cells to final concentrations of 10, 3.3, 1.1, 0.37, 0.12, 0.041, 0.014 and 0.0046 μM in 100 μl cell culture medium (final concentration 0.2% DMSO). […] The cells were incubated at 37° C., 5% CO2 for three days. CellTiter-Glo Buffer (Promega Cell Viability Assay catalog #G7573) and substrate were equilibrated to room temperature, and enzyme/substrate Recombinant Firefly Luciferase/Beetle Luciferin was reconstituted. The cell plates were equilibrated to room temperature for 30 minutes, then lysed by addition of an equivalent volume of the Celltiter-Glo Reagent. The plate was mixed for 10 minutes on a plate shaker to lyse the cells. The plates were read on a Tecan M1000 using Luminescence protocol modified to read 0.1 s per well. The luminescence reading assesses the ATP content, which correlates directly with cell number such that the reading as a function of compound concentration was used to determine the IC50 value.

FLT3-D835Y = molecular target: T2, FLT3-D835Y (Homo sapiens, UniProt P36888, D835Y); test: FLT3-D835Y biochemical kinase assay (AlphaScreen)
T2 construct: purchased Invitrogen PV3967
T2 sequence (P36888 27-993 D835Y): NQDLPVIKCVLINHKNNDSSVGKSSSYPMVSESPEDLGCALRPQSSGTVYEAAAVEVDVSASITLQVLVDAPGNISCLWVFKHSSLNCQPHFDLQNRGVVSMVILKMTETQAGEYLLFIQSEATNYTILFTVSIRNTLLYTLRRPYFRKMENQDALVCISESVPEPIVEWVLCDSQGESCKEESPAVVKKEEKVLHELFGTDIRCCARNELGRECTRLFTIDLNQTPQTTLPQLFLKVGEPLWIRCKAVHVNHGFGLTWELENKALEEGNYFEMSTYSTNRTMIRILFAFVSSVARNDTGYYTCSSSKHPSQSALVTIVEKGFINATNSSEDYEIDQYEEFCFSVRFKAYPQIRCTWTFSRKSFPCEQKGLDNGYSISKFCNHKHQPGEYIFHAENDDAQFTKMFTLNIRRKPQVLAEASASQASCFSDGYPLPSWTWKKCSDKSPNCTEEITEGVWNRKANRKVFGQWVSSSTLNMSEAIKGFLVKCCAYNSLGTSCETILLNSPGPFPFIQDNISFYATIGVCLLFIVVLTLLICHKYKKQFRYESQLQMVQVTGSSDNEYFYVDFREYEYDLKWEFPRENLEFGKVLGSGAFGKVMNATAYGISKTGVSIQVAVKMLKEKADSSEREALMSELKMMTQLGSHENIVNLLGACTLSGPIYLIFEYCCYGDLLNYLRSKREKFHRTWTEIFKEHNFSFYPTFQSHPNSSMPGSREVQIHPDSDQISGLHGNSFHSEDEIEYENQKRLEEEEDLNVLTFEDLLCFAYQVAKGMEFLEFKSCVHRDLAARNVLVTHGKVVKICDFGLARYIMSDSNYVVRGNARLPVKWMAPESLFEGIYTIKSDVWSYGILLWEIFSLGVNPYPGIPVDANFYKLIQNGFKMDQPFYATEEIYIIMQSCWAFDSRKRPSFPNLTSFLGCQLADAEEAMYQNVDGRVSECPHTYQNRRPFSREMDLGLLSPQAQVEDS
Method in brief: (§1)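 First, recombinant FLT3 variant phosphorylates a biotinylated poly(Glu4-Tyr) peptide (30 nM) with ATP at 10 μM (D835Y) or 100 μM (ITD). Streptavidin donor beads are then added for 20 min at room temperature, followed by anti-phosphotyrosine PY20 acceptor beads for 60 min. Signal at 580 nm gives IC50.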

FLT3-ITD = molecular target: T3, FLT3-ITD (Homo sapiens, UniProt P36888); test: FLT3-ITD biochemical kinase assay (AlphaScreen)
T3 construct: FLT3-ITD; Invitrogen #PV6190
T3 sequence (P36888 1-993): T1 sequence (P36888 1-993 F691L) with L691F
Method in brief: as §1

SMILES	GI50 [1]	IC50 (FLT3-D835Y)	IC50 (FLT3-ITD)
CC(C)(C)n1cnc2ccc(-c3c[nH]c4ncc(-c5ccc(N6CCOCC6)cc5)cc34)cc21 [P-299, 4-[4-[3-(3-tert-butylbenzimidazol-5-yl)-1H-pyrrolo[2,3-b]pyridin-5-yl]phenyl]morpholine]	0.0001 to 1 µM	0.0001 to 1 µM	–
Cn1cnc2ccc(-c3c[nH]c4ncc(C(=O)Nc5cccc(F)c5)cc34)cc21 [P-177, N-(3-fluorophenyl)-3-(3-methylbenzimidazol-5-yl)-1H-pyrrolo[2,3-b]pyridine-5-carboxamide]	0.0001 to 1 µM	0.0001 to 1 µM	–
c1cc(N2CCOCC2)ccc1-c1cnc2[nH]cc(-c3ccc4ncn(C5CCCNC5)c4c3)c2c1 (stereo not shown) [P-300, 4-[4-[3-[3-(3-piperidyl)benzimidazol-5-yl]-1H-pyrrolo[2,3-b]pyridin-5-yl]phenyl]morpholine]	0.0001 to 1 µM	0.0001 to 1 µM	–
CN1CCN(c2ccc(-c3cnc4[nH]cc(-c5ccc6ncn(C7CCCNC7)c6c5)c4n3)cn2)CC1 (stereo not shown) [P-334, 2-[6-(4-methylpiperazin-1-yl)-3-pyridyl]-7-[3-(3-piperidyl)benzimidazol-5-yl]-5H-pyrrolo[2,3-b]pyrazine]	0.0001 to 1 µM	–	0.0001 to 1 µM
CC(C)(C)n1cnc2ccc(-c3c[nH]c4ncc(-c5ccnc(N6CCNCC6)c5)nc34)cc21 [P-307, 7-(3-tert-butylbenzimidazol-5-yl)-2-(2-piperazin-1-yl-4-pyridyl)-5H-pyrrolo[2,3-b]pyrazine]	0.0001 to 1 µM	0.0001 to 1 µM	–

Continued, values first:

GI50 [1]	IC50 (FLT3-D835Y)	IC50 (FLT3-ITD)	SMILES
0.0001 to 1 µM	0.0001 to 1 µM	–	N#Cc1cc(-c2cnc3[nH]cc(-c4ccc5ncn(C6CCCNC6)c5c4)c3n2)ccn1 (stereo not shown) [P-304, 4-[7-[3-(3-piperidyl)benzimidazol-5-yl]-5H-pyrrolo[2,3-b]pyrazin-2-yl]pyridine-2-carbonitrile]
0.0001 to 1 µM	0.0001 to 1 µM	–	CC(C)(C)n1cnc2ccc(-c3c[nH]c4ncc(-c5cccc(N6CCNCC6)c5)nc34)cc21 [P-302, 7-(3-tert-butylbenzimidazol-5-yl)-2-(3-piperazin-1-ylphenyl)-5H-pyrrolo[2,3-b]pyrazine]
0.0001 to 1 µM	0.0001 to 1 µM	–	COc1cnc2[nH]cc(-c3ccc4ncn(-c5ccc(F)c(Cl)c5)c4c3)c2c1 [P-109, 1-(3-chloro-4-fluoro-phenyl)-6-(5-methoxy-1H-pyrrolo[2,3-b]pyridin-3-yl)benzimidazole]
0.0001 to 1 µM	0.0001 to 1 µM	–	c1cc(-c2cnc3[nH]cc(-c4ccc5ncn(C6CCCNC6)c5c4)c3n2)cc(N2CCOCC2)c1 (stereo not shown) [P-303, 4-[3-[7-[3-(3-piperidyl)benzimidazol-5-yl]-5H-pyrrolo[2,3-b]pyrazin-2-yl]phenyl]morpholine]
0.0001 to 1 µM	–	0.0001 to 1 µM	CN1CCN(c2ccc(-c3cnc4[nH]cc(-c5ccc6ncn(C(C)(C)C)c6c5)c4n3)cn2)CC1 [P-333, 7-(3-tert-butylbenzimidazol-5-yl)-2-[6-(4-methylpiperazin-1-yl)-3-pyridyl]-5H-pyrrolo[2,3-b]pyrazine]
0.0001 to 1 µM	0.0001 to 1 µM	–	c1cc(-c2cnc3[nH]cc(-c4ccc5ncn(C6CCCNC6)c5c4)c3n2)cc(N2CCNCC2)n1 (stereo not shown) [P-308, 2-(2-piperazin-1-yl-4-pyridyl)-7-[3-(3-piperidyl)benzimidazol-5-yl]-5H-pyrrolo[2,3-b]pyrazine]

From patent publication US10160755B2 (Plexxikon Inc., priority 2015, dated 2018)
